Results from patent US20070249620A1, “Urea Derivative” (priority 2004, published 2007).

Key:
mouse DGAT1 = target: T1, mouse DGAT1 (Mus musculus, UniProt Q9Z2A7); assay: DGAT1 inhibitory effect test (microsome fraction, [14C]-oleoyl-CoA, triglyceride radioactivity by TLC); format: biochemical; settings: 0.5 h; concentration of the test compound 0.1 μg/ml; mouse DGAT1 microsomes, 23° C., 30 minutes; read-out: Inhibitory ratio
T1 construct: made in house; host or cells: insect cells (High Five, Sf9, Sf21, etc.), baculovirus expression system (Invitrogen)
T1 sequence (Q9Z2A7 1-498): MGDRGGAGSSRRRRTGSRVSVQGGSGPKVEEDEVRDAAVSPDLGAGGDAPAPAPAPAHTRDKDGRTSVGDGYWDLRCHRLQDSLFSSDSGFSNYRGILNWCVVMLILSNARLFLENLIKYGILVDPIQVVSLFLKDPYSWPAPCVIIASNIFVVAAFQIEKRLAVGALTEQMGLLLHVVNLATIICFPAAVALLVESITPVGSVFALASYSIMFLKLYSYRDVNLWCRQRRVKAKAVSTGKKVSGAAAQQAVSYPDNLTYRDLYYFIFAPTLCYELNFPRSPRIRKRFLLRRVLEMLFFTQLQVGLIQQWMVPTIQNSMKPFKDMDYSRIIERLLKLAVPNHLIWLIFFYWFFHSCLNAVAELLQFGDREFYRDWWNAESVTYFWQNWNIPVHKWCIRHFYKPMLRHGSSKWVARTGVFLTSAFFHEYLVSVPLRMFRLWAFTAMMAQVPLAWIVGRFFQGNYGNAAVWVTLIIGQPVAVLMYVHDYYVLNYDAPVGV
In short: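 Baculovirus-expressed mouse DGAT1 insect-cell microsomes (10 μg) were incubated 30 min at 23 °C, pH 8.0, with 0.5 mM 1,2-dioleoyl-sn-glycerol, 30 μM [14C]-oleoyl-CoA and 0.5% Triton X-100. [14C]-triglyceride was quantified after heptane extraction and TLC. Percent inhibition was taken against vehicle control, with 0-min background subtracted.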

Structure (SMILES) | inhibition at 0.1 µg/mL (mouse DGAT1) [%] | melting point
CCOc1ccc(Cl)cc1NC(=O)Nc1ccc(N2CCN(C(=O)Nc3ccccc3C(F)(F)F)CC2)cc1 [Example 102, 4-{4-[3-(5-chloro-2-ethoxy-phenyl)-ureido]-phenyl}-piperazine-1-carboxylic acid (2-trifluoromethyl-phenyl)-amide] | ≥ 50 | 219 to 221 °C
COc1ccc(C)cc1NC(=O)Nc1ccc(N2CCN(C(=O)Nc3c(F)cccc3C(F)(F)F)CC2)cc1 [Example 64, 4-{4-[3-(2-methoxy-5-methyl-phenyl)-ureido]-phenyl}-piperazine-1-carboxylic acid (2-fluoro-6-trifluoromethyl-phenyl)-amide] | ≥ 50 | 134 to 136 °C
COc1ccc(C)cc1NC(=O)Nc1ccc(N2CCN(C(=O)Nc3c(C)cccc3C)CC2)cc1 [Example 62, 4-{4-[3-(2-methoxy-5-methyl-phenyl)-ureido]-phenyl}-piperazine-1-carboxylic acid (2,6-dimethyl-phenyl)-amide] | ≥ 50 | 212 to 214 °C
COc1ccc(F)cc1NC(=O)Nc1ccc(N2CCN(C(=O)Nc3ccccc3C(F)(F)F)CC2)cc1 [Example 96, 4-{4-[3-(5-fluoro-2-methoxy-phenyl)-ureido]-phenyl}-piperazine-1-carboxylic acid (2-trifluoromethyl-phenyl)-amide] | ≥ 50 | 229 to 230 °C
COc1ccc(C)cc1NC(=O)Nc1ccc(N2CCN(C(=O)Nc3ccc(OCC(O)CO)cc3Cl)CC2)cc1 (stereo not drawn) [Example 277, 4-{4-[3-(2-methoxy-5-methyl-phenyl)-ureido]-phenyl}-piperazine-1-carboxylic acid [2-chloro-4-(2,3-dihydroxy-propoxy)-phenyl]-amide] | ≥ 50 | 134 to 136 °C
COc1ccc(C)cc1NC(=O)Nc1ccc(C2=CCN(C(=O)Nc3ncccc3C)CC2)cc1 [Example 324, 4-{4-[3-(2-methoxy-5-methyl-phenyl)-ureido]-phenyl}-3,6-dihydro-2H-pyridine-1-carboxylic acid (3-methyl-pyridin-2-yl)-amide] | ≥ 50 | 195 to 198 °C
COc1ccc(C)cc1NC(=O)Nc1ccc2c(c1)CCN(C(=O)Nc1ccc(OCC(O)CO)cc1C(F)(F)F)C2 (stereo not drawn) [Example 293, 6-[3-(2-methoxy-5-methyl-phenyl)-ureido]-3,4-dihydro-1H-isoquinoline-2-carboxylic acid [4-(2,3-dihydroxy-propoxy)-2-trifluoromethyl-phenyl]-amide] | ≥ 50 | 174 to 176 °C
CCCCOc1ccc(NC(=O)Nc2ccc(N3CCN(C(=O)Nc4c(C)cccc4Cl)CC3)cc2)cc1 [Example 162, 4-{4-[3-(4-butoxy-phenyl)-ureido]-phenyl}-piperazine-1-carboxylic acid (2-chloro-6-methyl-phenyl)-amide] | ≥ 50 | 218 to 219 °C
COc1cc(NC(=O)Nc2ccc(N3CCN(C(=O)Nc4ncc(F)cc4F)CC3)cc2)cc(OC)c1 [Example 341, 4-{4-[3-(3,5-dimethoxy-phenyl)-ureido]-phenyl}-piperazine-1-carboxylic acid (3,5-difluoro-pyridin-2-yl)-amide] | ≥ 50 | 204 to 205 °C
COc1ccc(Cl)cc1NC(=O)Nc1ccc(N2CCN(C(=O)Nc3ccccc3Cl)CC2)cc1 [Example 78, 4-{4-[3-(5-chloro-2-methoxy-phenyl)-ureido]-phenyl}-piperazine-1-carboxylic acid (2-chloro-phenyl)-amide] | ≥ 50 | 231 to 233 °C
COc1ccc(C)cc1NC(=O)Nc1ccc(N2CCN(C(=O)Nc3cc(OCCO)ccc3Cl)CC2)nc1 [Example 238, 4-{5-[3-(2-methoxy-5-methyl-phenyl)-ureido]-pyridin-2-yl}-piperazine-1-carboxylic acid [2-chloro-5-(2-hydroxy-ethoxy)-phenyl]-amide] | ≥ 50 | 132 to 134 °C
CCOc1ccc(C)cc1NC(=O)Nc1ccc(N2CCN(C(=O)Nc3ncccc3C)CC2)cc1 [Example 311, 4-{4-[3-(2-ethoxy-5-methyl-phenyl)-ureido]-phenyl}-piperazine-1-carboxylic acid (3-methyl-pyridin-2-yl)-amide] | ≥ 50 | 206 to 208 °C
COc1ccc(F)cc1NC(=O)Nc1ccc(N2CCN(C(=O)Nc3ccc(OCCO)cc3C(F)(F)F)CC2)nc1 [Example 223, 4-{5-[3-(5-fluoro-2-methoxy-phenyl)-ureido]-pyridin-2-yl}-piperazine-1-carboxylic acid [4-(2-hydroxy-ethoxy)-2-trifluoromethyl-phenyl]-amide] | ≥ 50 | 172 to 173 °C
COc1ccc(C)cc1NC(=O)Nc1ccc(N2CCCN(C(=O)Nc3ccc(OCCO)cc3C(F)(F)F)CC2)cc1 [Example 218, 4-{4-[3-(2-methoxy-5-methyl-phenyl)-ureido]-phenyl}-perhydro-1,4-diazepine-1-carboxylic acid [4-(2-hydroxy-ethoxy)-2-trifluoromethyl-phenyl]-amide] | ≥ 50 | 118 to 120 °C
Cc1cccc(Cl)c1NC(=O)N1CCN(c2ccc(NC(=O)NC3CCCCC3)cc2)CC1 [Example 207, 4-[4-(3-cyclohexyl-ureido)-phenyl]-piperazine-1-carboxylic acid (2-chloro-6-methyl-phenyl)-amide] | ≥ 50 | > 260 °C (dec.)
COc1ccc(C)cc1NC(=O)Nc1ccc(N2CCN(C(=O)Nc3c(Cl)cccc3Cl)CC2)cc1 [Example 65, 4-{4-[3-(2-methoxy-5-methyl-phenyl)-ureido]-phenyl}-piperazine-1-carboxylic acid (2,6-dichloro-phenyl)-amide] | ≥ 50 | 210 to 221 °C
O=C(Nc1ccc(N2CCN(C(=O)Nc3ccc(OCCO)cc3C(F)(F)F)CC2)cc1)Nc1ccccc1OC(F)(F)F [Example 240, 4-{4-[3-(2-trifluoromethoxy-phenyl)-ureido]-phenyl}-piperazine-1-carboxylic acid [4-(2-hydroxy-ethoxy)-2-trifluoromethyl-phenyl]-amide] | ≥ 50 | 112 to 114 °C
O=C(Nc1ccc(N2CCN(C(=O)Nc3ccc(OCCO)cc3C(F)(F)F)CC2)cc1)Nc1cccc2c1OCCO2 [Example 244, 4-{4-[3-(2,3-dihydro-1,4-benzodioxin-5-yl)-ureido]-phenyl}-piperazine-1-carboxylic acid [4-(2-hydroxy-ethoxy)-2-trifluoromethyl-phenyl]-amide] | ≥ 50 | 127 to 129 °C
CCc1ccc(NC(=O)Nc2ccc(N3CCN(C(=O)Nc4c(C)cccc4Cl)CC3)cc2)cc1 [Example 160, 4-{4-[3-(4-ethyl-phenyl)-ureido]-phenyl}-piperazine-1-carboxylic acid (2-chloro-6-methyl-phenyl)-amide] | ≥ 50 | 239 to 241 °C
COc1ccc(C)cc1NC(=O)Nc1ccc(C2=CCN(C(=O)Nc3ccc(OCCO)cc3C(F)(F)F)CC2)cc1 [Example 230, 4-{4-[3-(2-methoxy-5-methyl-phenyl)-ureido]-phenyl}-3,6-dihydro-2H-pyridine-1-carboxylic acid [4-(2-hydroxy-ethoxy)-2-trifluoromethyl-phenyl]-amide] | ≥ 50 | 150 to 153 °C
COc1ccccc1NC(=O)Nc1ccc(C2=CCN(C(=O)Nc3ccc(OCC(O)CO)cc3Cl)CC2)cc1 (stereo not drawn) [Example 286, 4-{4-[3-(2-methoxy-phenyl)-ureido]-phenyl}-3,6-dihydro-2H-pyridine-1-carboxylic acid [2-chloro-4-(2,3-dihydroxy-propoxy)-phenyl]-amide] | ≥ 50 | 103 to 107 °C
COc1ccc(C)cc1NC(=O)Nc1ccc(N2CCN(C(=O)Nc3c(C)cc(C)cc3C)CC2)cc1 [Example 88, 4-{4-[3-(2-methoxy-5-methyl-phenyl)-ureido]-phenyl}-piperazine-1-carboxylic acid (2,4,6-trimethyl-phenyl)-amide] | ≥ 50 | 215 to 217 °C
COc1ccccc1NC(=O)Nc1ccc(N2CCN(C(=O)Nc3ccc(OCCO)cc3Cl)CC2)c(Cl)c1 [Example 269, 4-{2-chloro-4-[3-(2-methoxy-phenyl)-ureido]-phenyl}-piperazine-1-carboxylic acid [2-chloro-4-(2-hydroxy-ethoxy)-phenyl]-amide] | ≥ 50 | 173 to 175 °C
CCOc1ccccc1NC(=O)Nc1ccc(N2CCN(C(=O)Nc3ccc(OC)cc3C)CC2)cc1 [Example 110, 4-{4-[3-(2-ethoxy-phenyl)-ureido]-phenyl}-piperazine-1-carboxylic acid (4-methoxy-2-methyl-phenyl)-amide] | ≥ 50 | 202 to 203 °C
